Like-named read-outs stand apart in the source and are kept apart here.

The values below come from patent publication US20250179061A1 (SIRONAX LTD., priority 2022, published 2025).

The assay concerns HT-29 cells. Kind of assay: HT-29 necroptosis cell viability assay (TNF-α/SMAC mimetic/zVAD-FMK, CellTiter-Glo). The format is cell-based. The conditions noted are these: Homo sapiens, read-out: Activity. Put shortly:
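HT-29 cells (~5,000/well, overnight) in FBS-free McCoy's 5A with TNF-α 10 ng/ml, SMAC mimetic 6 μM and zVAD-FMK 10 μM plus 10-point 1:3 compound titration, 20 h at 37°C. ATP measured by CellTiter-Glo luminescence; IC50 as geometric mean of duplicates.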

Where [1] appears, read: HT-29, HT-29 necroptosis cell viability, IC50 class symbols.
Setting [2] is: HT-29, HT-29 necroptosis cell viability assay, class symbols for IC50.

As for `NC12CC(Nc3cc(Oc4ccc(-n5ncn(Cc6c(F)cccc6F)c5=O)cc4)ccn3)(C1)C2` [Example 354, 2-(4-((2-((3-aminobicyclo[1.1.1]pentan-1-yl)amino)pyridin-4-yl)oxy)phenyl)-4-(2,6-difluorobenzyl)-2,4-dihydro-3H-1,2,4-triazol-3-one], the IC50 under setting [1] was 100 to 1000 nM.

On to `CC1(C#N)CN(c2cc(Oc3ccc(-n4ncn(Cc5c(F)cccc5F)c4=O)cc3F)c(F)cn2)C1` [Example 262, 1-(4-(4-(4-(2,6-difluorobenzyl)-5-oxo-4,5-dihydro-1H-1,2,4-triazol-1-yl)-2-fluorophenoxy)-5-fluoropyridin-2-yl)-3-methylazetidine-3-carbonitrile], for which the IC50 under setting [1] was less than 100 nM.

As to `CC(C)(C)OC(=O)NC(C)(C)C1CN(c2cc(Oc3ccc(-n4ncn(Cc5c(F)cccc5F)c4=O)cc3F)c(F)cn2)C1` [Example 372, tert-butyl (2-(1-(4-(4-(4-(2,6-difluorobenzyl)-5-oxo-4,5-dihydro-1H-1,2,4-triazol-1-yl)-2-fluorophenoxy)-5-fluoropyridin-2-yl)azetidin-3-yl)propan-2-yl)carbamate], the IC50 under setting [1] is less than 100 nM. Turning to `Cc1nc(C2(N)CC2)sc1Oc1ccc(-n2ncn(Cc3c(F)cccc3F)c2=O)cc1F` [Example 613, 2-(4-((2-(1-aminocyclopropyl)-4-methylthiazol-5-yl)oxy)-3-fluorophenyl)-4-(2,6-difluorobenzyl)-2,4-dihydro-3H-1,2,4-triazol-3-one], the IC50 under setting [2] is less than 100 nM. Turning to `O=c1n(Cc2c(F)cccc2F)cnn1-c1ccc(Oc2cc(N3CC4(CNC4)C3)ncc2F)c(F)c1` [Example 418, 4-(2,6-difluorobenzyl)-2-(3-fluoro-4-((5-fluoro-2-(2,6-diazaspiro[3.3]heptan-2-yl)pyridin-4-yl)oxy)phenyl)-2,4-dihydro-3H-1,2,4-triazol-3-one], under setting [1], the IC50 is less than 100 nM. With `CC(=O)c1nc(C)c(Oc2ccc(-n3ncn(Cc4c(F)cccc4F)c3=O)cc2F)s1` [Example 449, 2-(4-((2-acetyl-4-methylthiazol-5-yl)oxy)-3-fluorophenyl)-4-(2,6-difluorobenzyl)-2,4-dihydro-3H-1,2,4-triazol-3-one], the IC50 under setting [1] is less than 100 nM. `Cc1nc(C(N)=O)sc1Oc1ccc(-n2ncn(Cc3c(F)cccc3C#N)c2=O)cc1F` [Example 567, 5-(4-(4-(2-cyano-6-fluorobenzyl)-5-oxo-4,5-dihydro-1H-1,2,4-triazol-1-yl)-2-fluorophenoxy)-4-methylthiazole-2-carboxamide]: the IC50 under setting [2] is less than 100 nM.
